Laboratory results: patent US20260242390A1, “TOTAL SYNTHESES OF PORTIMINE A AND ANALOGUES THEREOF AS SMALL MOLECULE MODULATORS OF NMD3” (priority 2023, published 2026)

Assays:
[1] = test system: human T-cell acute lymphoblastic leukaemia (T-ALL) cell lines; settings: cited from earlier work
[2] = test system: normal murine haematopoietic cells; settings: cited from earlier work
Jurkat cells = assay: Initial SAR: activity of PAL functionalized PTMA analogs; assay type: cell-based, human; settings: in the concentrate range
Excerpt: FIG. 3. Initial SAR studies: Assessing activity of PAL functionalized PTMA analogs. […] (A) PA and Ph-PA show less toxic to healthy PBMCs compared to Jurkat cells. […] (B) Immunoblot of caspase-3 in Jurkat and PBMCs with indicated conditions.
• 1) Portimine A and its functional analogs show stereo-selective acute toxicity in cancer cells (FIG. 1). […] (B) Structure of portimine related analogs: phenyl-portimine A (Ph-PA, 36) and epi-portimine A (ePA, 38). Structure of fully functionalized portimine A-based epimeric probe pair: portimine A-diazirine-alkyne (PA-DA, 35-2) and epi-portimine A-diazirine-alkyne (ePA-DA, 35-1). (C) Cell viability analysis of portimine A and analogs. Jurkat cells were treated with increasing concentrations of portimine A and analogs for 24 hours. All presented data as mean of biological replicated experiments (n=3). […] Jurkat cells were treated with portimine A or analogs for 12 hours at 10 nM. […] Structurally related negative control ePA and PB are non-toxic in all cell types in the current concentrate range. PBMCs (25k per well), Jurkat (10k per well). […] Cell cycle analysis in Jurkat cells (FIG. 2). Jurkat cells were treated with 10 nM of indicated compounds for 24 hours, and propodium iodide was used to identify different stages of cells by flow cytometry. […] (A) PA and Ph-PA show less toxic to healthy PBMCs compared to Jurkat cells. […] (B) Immunoblot of caspase-3 in Jurkat and PBMCs with indicated conditions. […] (A) Pharmacokinetic studies of mouse intraperitoneal (i.p.) and oral (p.o.) administration for portimine (n=3). […] Impact of PA [0.3 or 1 mg/kg intraperitoneally] on MC38 tumor growth in WT mice (n=6). (C) Kaplan-Myer survival curve of WT MC38 tumor-bearing mice (n=6) after treatment with PA as described in (D). Mice were euthanized when tumor area exceeded 2000 mm^3. Statistical analysis was performed using ANOVA analysis followed by multiple comparisons test, * p≤0.05. Treatment condition: Jurkat (60 M per condition); PA-DA/ePA-DA concentration: 0.5 uM, PA or ePA: 5 uM; Incubate with probe with or without competitors (PA, ePA) for 30 min; UV irradiated for 20 min. (0.5 uM PA-DA add a no-UV condition), Standard pulldown & biotin-enrichment and western blot analysis (Elute condition: 2× sample buffer+500 uM biotin, boil for 20 mins); Primary antibody NMD3 (ProteinTech, 1:150), Actin (BioRad, 1:10000). […] Cell lysates were fractionated by sucrose gradient (5-50%) and each fraction were analyzed by western blot. eIF6 levels increase in 60S subunit fraction and decrease in ribosome-free fractions after PA treatment. […]

Structure (SMILES): O=C(/C=C\n1cnc(-c2cc(C(F)(F)F)cc(C(F)(F)F)c2)n1)NNc1cnccn1 [KPT-330]
- apoptosis in a panel of 14 human T-ALL cell lines [1]: induced rapid apoptosis at low nanomolar concentrations
- toxicity to normal murine haematopoietic cells [2]: little toxicity

Structure (SMILES): CC(=O)O[C@@H]1CC(C)[C@@H]2CC[C@@]3(C[C@@H](O)C4=NCC[C@@]45CCC(c4ccc(C(=O)NCCC6(CCC#N)N=N6)cc4)=C[C@@H]5[C@H](O3)C1=O)O2 (stereo partly drawn) [epi-PTMA-Ac-DA]
- activity of PAL functionalized PTMA analogs (Jurkat cells): no activity
